{"source": "patent US20040259096A1", "about": "“Receptor capture assay” (priority 2001, published 2004)", "key": {"Ah receptor [1]": {"system": "Ah receptor", "assay": "Biotinylated ARNT assay, neutravidin capture, PCR and gel densitometry", "format": "biochemical", "details": "1 μl of 1 nM beta-naphthoflavone", "description": "Activation of the Ah receptor with dose was performed in a microfuge tube containing 50 μl of Ah receptor preparation, 1 μl of 200 μg/ml biotinylated ARNT, and 1 μl of 1 nM beta-naphthoflavone and incubated for 1 hr at 30° C. To minimize non-specific interactions, 1-2 μg of salmon sperm DNA was added to the activated complex, along with NaCl to a final concentration of 60 mM. After 10 min at room temperature, varying amounts of nucleic acid-tracer (50-500 fmole) was added, and the reaction allowed to incubate for an additional 10 min at room temperature. The reaction mix (40 μl) was transferred to a neutravidin-coated plate and incubated for 30 min on a Wallac plate shaker at room temperature. The wells were washed five times with Wash Buffer B, soaking wells for 3 min with wash buffer during each cycle, followed by two washes with ultrapure water.\nFor PCR analysis, 50 μl of PCR reagent was added and the well contents were subjected to 28 cycles of PCR amplification, using GeneAmp PCR System 2700 (Applied Biosystems, Foster City, Calif.). PCR was performed using 50 μl of PCR Master Mix (Promega, Madison, Wis.) diluted to the appropriate concentration with nuclease-free water and 1 μM of each primer was used per PCR reaction. Following the addition of PCR mix, the microtiter strip was sealed with adhesive and placed in the thermocylcer. Samples were initially heated to 95° C. for 5 min to denature the Ah receptor/ARNT complex and free the nucleic acid for PCR analysis then subjected to 28 cycles of 94° C., 30 sec, 52° C., 30 sec, 72° C., 45 sec, followed by 72° C. for 5 min, then cooling to 4° C.\nPCR product, 20 μl, was analyzed by 4% agarose gel electrophoresis, with PCR product visualized under UV light by ethidium bromide staining UV light-illuminated gels were photographed using a Polaroid MP 4 Land Camera and Polaroid Type 55 film. Transmission densitometry with film negatives was performed and areas under the peak calculated using arbitrary units."}, "Ah receptor [2]": {"system": "Ah receptor", "assay": "Detecting activated Ah receptor in nuclear extracts of treated Hepa 1c1c7 cells", "format": "cell-based, murine", "details": "Hepa 1c1c7 cells treated with 10 μM BNF for 1 hour", "description": "Hepa 1c1c7 cells were grown until nearly confluent in Dulbecco's modified Eagle's medium and 8% fetal bovine serum. The cells were treated with 10 μM beta-naphthoflavone (BNF) in DMSO for 1 hour. The cells were then harvested after two washes with ice-cold PBS by centrifugation at 1000×g. The cells were then suspended in 5 packed cell pellet volumes of 10 mM Hepes, pH 7.5 and allowed to stand for 10 min.\nThe suspended cells were again collected by centrifugation and resuspended in two packed cell pellet volumes of 25 mM Hepes, pH 7.5, 3 mM MgCl2, 1 mM DTT and then lysed with 10 strokes of a Kontes all glass Dounce homogenizer (B type pestle). The resulting homogenate was checked microscopically to confirm cell lysis and then centrifuged for 10 min at 1000×g to pellet the nuclei.\nThe nuclear extract was prepared as follows. The nuclei were resuspended and incubated for 30 min in 25 mM Hepes, pH 7.5, 3 mM MgCl2, 1 mM DTT containing 0.4 M KCl. The suspension was occasionally vortexed during the 30 min incubation and centrifuged in a microfuge at high speed. Glycerol was added to the supernatant to a 10% concentration. The nuclear extract was diluted to lower the salt concentration prior to testing. The diluent was Hepa 1c1c7 cell extract that was previously boiled in order to inactivate protein factors and cooled to room temperature. […]"}, "Ah receptor [3]": {"system": "Ah receptor", "details": "Carver et al., 1994 JBC 269:30109-30112; cited from earlier work"}, "AhR": {"target": "T1, AhR (Homo sapiens, UniProt P35869)", "T1 sequence (P35869 11-848)": "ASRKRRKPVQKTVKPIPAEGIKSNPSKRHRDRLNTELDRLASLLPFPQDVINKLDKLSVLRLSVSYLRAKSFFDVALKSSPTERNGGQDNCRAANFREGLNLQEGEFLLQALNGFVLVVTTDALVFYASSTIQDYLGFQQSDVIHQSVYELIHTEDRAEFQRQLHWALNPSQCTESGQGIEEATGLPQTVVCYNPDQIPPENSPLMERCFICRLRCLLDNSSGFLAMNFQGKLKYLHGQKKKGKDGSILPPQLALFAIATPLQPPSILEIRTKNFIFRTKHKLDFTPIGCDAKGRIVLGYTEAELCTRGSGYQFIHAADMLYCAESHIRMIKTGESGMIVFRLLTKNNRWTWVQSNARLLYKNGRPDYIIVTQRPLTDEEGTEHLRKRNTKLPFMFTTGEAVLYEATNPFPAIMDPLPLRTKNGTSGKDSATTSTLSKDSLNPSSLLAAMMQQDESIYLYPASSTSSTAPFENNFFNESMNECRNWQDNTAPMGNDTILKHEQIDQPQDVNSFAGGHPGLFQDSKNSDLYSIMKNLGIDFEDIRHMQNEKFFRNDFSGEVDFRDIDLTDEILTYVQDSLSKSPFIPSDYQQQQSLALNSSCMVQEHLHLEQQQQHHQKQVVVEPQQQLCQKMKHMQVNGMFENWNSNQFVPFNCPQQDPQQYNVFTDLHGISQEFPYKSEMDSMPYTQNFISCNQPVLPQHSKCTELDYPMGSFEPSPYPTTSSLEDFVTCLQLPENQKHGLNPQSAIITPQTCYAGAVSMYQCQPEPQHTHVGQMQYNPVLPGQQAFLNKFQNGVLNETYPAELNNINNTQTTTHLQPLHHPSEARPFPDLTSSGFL", "details": "Van den Berg et al., 1998; cited from earlier work"}}, "data": [{"smiles": "O=c1cc(-c2ccccc2)oc2ccc3ccccc3c12", "note": "[BNF, beta-naphthoflavone]", "values": [{"measurement": "area under the peak, PCR product densitometry", "setting": "Ah receptor [1]; Nucleic Acid-Tracer 63 fmol", "value": 459, "unit": "arbitrary units"}, {"measurement": "area under the peak, PCR product densitometry", "setting": "Ah receptor [1]; Nucleic Acid-Tracer 125 fmol", "value": 349, "unit": "arbitrary units"}, {"measurement": "area under the peak, PCR product densitometry", "setting": "Ah receptor [1]; Nucleic Acid-Tracer 250 fmol", "value": 392, "unit": "arbitrary units"}, {"measurement": "area under the peak, PCR product densitometry", "setting": "Ah receptor [1]; Nucleic Acid-Tracer 500 fmol", "value": 392, "unit": "arbitrary units"}, {"measurement": "PCR-amplified DNA over nuclear extracts from DMSO-treated cells", "setting": "Ah receptor [2]", "value": "significant and reproducible increase in PCR-amplified DNA"}, {"measurement": "affinity for the Ah receptor relative to TCDD", "setting": "Ah receptor [3]", "value": "approximately an order of magnitude less affinity for the Ah receptor than TCDD"}]}, {"smiles": "Clc1cc2c(cc1Cl)Oc1cc(Cl)c(Cl)cc1O2", "note": "[TCDD, 2,3,7,8-tetrachlorodibenzo-p-dioxin]", "values": [{"measurement": "toxic equivalency factor (TEF) value", "setting": "AhR", "value": 1}]}]}
